Experimental data: publication PMC7002685, “Inhibition of vascular calcification by inositol phosphates derivatized with ethylene glycol oligomers” (Nature Communications, 2020)
“And” between values parts separate entries of the source, which are not always exact repeats. Equal values may be shown once.

Key:
[1] = target: T1, Histamine H1 (Homo sapiens, UniProt P35367); experiment: Off-target 239610; format: binding
T1 construct: purchased Eurofins Panlabs Discovery Services Taiwan, Ltd
Procedure: (§1) The potential off-target activity of 10 µM (OEG2)2-IP4 was assessed against a panel of 87 enzymes, receptors, or ion channels that are used in standard safety pharmacology screens.
(§2) 3.2. Off-target screening assay
(§3) The experiments were conducted by a contract research organization (Eurofins Panlabs Discovery Services Taiwan, Ltd.) and details on the respective assays can be retrieved via the catalog number provided in Supplementary Table 11 from the company’s webpage
(§4) (https://www.eurofinsdiscoveryservices.com/). […]
(§5) At sacrifice the left tibia of animals of the rat model with dietary adenine/high-phosphate-induced uremia and VC was collected, fixed with 70% v/v EtOH and embedded in methyl methacrylate. The trabecular bone compartment is known to be the most metabolic active i.e. actively re-structured bone compartment in CKD. Therefore, histomorphometric and micro-computed tomography (µCT) analysis of bone was performed on the trabecular compartment. Tibial sections were Goldner-stained for histomorphometric analysis of the proximal metaphysis using the AxioVision Release 4.5 software, as […]
(§6) described previously5. […]

[2] = PK after sub-chronic s.c. treatment (7 days); format: in vivo, male Sprague-Dawley rats; details: for plasma concentration: unit not given
Procedure: To study PK in healthy animals, male Sprague-Dawley rats (Harlan, Correzzana, Italy) were housed up to three per cage with free access to water and standard chow (pellets 12 mm, global diet 2018 certificate, Mucedola, Srl, Settimo Milanese, Italy), and submitted to a 12-h light/dark cycle. Animals were administered i.v. 10 mg/kg of (OEG2)2-IP4 in saline solution i.v. (30 s bolus, 5 mL/kg) and s.c. (5 mL/kg), respectively, in three animals per route and treatment. […] Plasma calcium concentration was determined in pre-dose samples and in t = 30 min samples of both acute and chronic treatments using the calcium colorimetric assay. Blood samples of 100 µL were drawn at several time points from the caudal vein, centrifuged at (3000 × g, 4 °C, 10 min) and stored at −80 °C until analysis by liquid chromatography–tandem mass spectrometry (LC-MS/MS).

[3] = target: T2, hERG potassium channel (Homo sapiens, UniProt Q12809); experiment: Off-target 265900; format: binding
T2 construct: purchased Eurofins Panlabs Discovery Services Taiwan, Ltd
Procedure: as §1, §2, §3, §4, §5, §6

[4] = target: T3, Adrenergic β1 (Homo sapiens, UniProt P08588); experiment: Off-target 204010; format: binding
T3 construct: purchased Eurofins Panlabs Discovery Services Taiwan, Ltd
Procedure: as §1, §2, §3, §4, §5, §6

[5] = target: T4, α2B (Homo sapiens, UniProt P18089); experiment: Off-target 203710; format: binding
T4 construct: purchased Eurofins Panlabs Discovery Services Taiwan, Ltd
Procedure: as §1, §2
(§7) The experiments were conducted by a contract research organization (Eurofins Panlabs Discovery
(§8) Services Taiwan, Ltd.) and details on the respective assays can be retrieved via the catalog number
(§9) provided in Supplementary Table 11 from the company’s webpage
as §4

[6] = target: T5, Progesterone PR-B (Homo sapiens, UniProt P06401); experiment: Off-target 299005; format: binding
T5 construct: purchased Eurofins Panlabs Discovery Services Taiwan, Ltd
Procedure: as §1, §2, §3, §4, §5, §6

[7] = tested on: GABAA, Ro-15-1788, Hippocampus; experiment: Off-target 226630; format: binding, Rat; details: 10 µM
Procedure: as §1, §2, §7, §8, §9, §4

[8] = target: T6, Adenosine A1 (Homo sapiens, UniProt P30542); experiment: Off-target 200510; format: binding
T6 construct: purchased Eurofins Panlabs Discovery Services Taiwan, Ltd
Procedure: as §1, §2, §7, §8, §9, §4

[9] = Compound stress test in D2O at 37 °C (NMR); format: physicochemical; details: up to 6 weeks
Procedure: For the compound stress test, 20.25 mg (OEG2)2-IP4 in 700 µL D2O was incubated at 37 °C and stability was monitored by ^1H-NMR and ^31P-NMR spectroscopies for up to 6 weeks.
Monitoring the stability of (OEG2)2-IP4 in aqueous solution at 37 °C for up to 6 weeks by 1H-
Monitoring the stability of (OEG2)2-IP4 in aqueous solution at 37 °C for up to 6 weeks by 31P- […]

[10] = 18F-NaF micro-PET/CT uptake on calcified human aortic valves ex vivo; format: binding
Procedure: To investigate (OEG2)2-IP4 interaction with calcified tissues in a clinically relevant context, a competitive binding assay using ^18F-NaF was applied on severely calcified human femoral arteries and native aortic valves ex vivo. […] First, ^18F-NaF uptake was measured on tissue samples treated with vehicle (human serum) and thereafter, using the same tissue samples, treated with (OEG2)2-IP4 in serum.
Triplicate aliquots of CPP2s (20 µg Ca/mL) in 100 μL assay buffer (100 mM HBS, pH 7.4 (RT)) were incubated for 1 h at RT in the presence of increasing concentrations of compounds in 50 μL Milli-Q water and ^18F-NaF (1 nM) in 50 μL assay buffer, resulting in a total incubation volume of 200 μL (^18F-NaF was prepared using a FASTlab synthesizer (GE Healthcare, Little Chalfont, UK) and commercially available ^18F-NaF cassettes (GE Healthcare)). Maximum radiotracer binding was determined by incubating CPP2s with ^18F-NaF (1 nM) only. The reaction was terminated by rapid filtration through a SOLAμ™ SPE plate (HRP 2 mg/mL 96-well plate, 22 μm; Thermo Fisher Scientific). SPE individual column matrices were washed twice rapidly in assay buffer and radioactivity on the filters determined by an automatic gamma counter (Wizard2 Gamma Counter, Perkin Elmer, Waltham, MA, USA). […]

[11] = target: T7, (Rattus norvegicus, UniProt P15823); experiment: Off-target 203200; format: binding
T7 construct: purchased Eurofins Panlabs Discovery Services Taiwan, Ltd
Procedure: as §1, §2, §3, §4, §5, §6

T1 sequence (P35367 whole entry): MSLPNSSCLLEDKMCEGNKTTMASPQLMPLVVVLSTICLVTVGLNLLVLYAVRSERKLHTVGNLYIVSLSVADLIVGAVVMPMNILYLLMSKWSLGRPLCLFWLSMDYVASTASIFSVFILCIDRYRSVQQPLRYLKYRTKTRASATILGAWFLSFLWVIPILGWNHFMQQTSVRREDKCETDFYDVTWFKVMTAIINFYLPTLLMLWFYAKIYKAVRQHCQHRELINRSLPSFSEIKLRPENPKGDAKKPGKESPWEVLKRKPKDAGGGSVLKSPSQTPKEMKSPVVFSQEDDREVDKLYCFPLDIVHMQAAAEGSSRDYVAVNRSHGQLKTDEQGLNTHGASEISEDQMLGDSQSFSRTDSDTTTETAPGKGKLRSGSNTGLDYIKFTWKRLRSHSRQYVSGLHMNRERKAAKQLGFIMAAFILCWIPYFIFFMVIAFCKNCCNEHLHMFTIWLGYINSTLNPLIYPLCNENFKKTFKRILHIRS
T4 sequence (P18089 whole entry): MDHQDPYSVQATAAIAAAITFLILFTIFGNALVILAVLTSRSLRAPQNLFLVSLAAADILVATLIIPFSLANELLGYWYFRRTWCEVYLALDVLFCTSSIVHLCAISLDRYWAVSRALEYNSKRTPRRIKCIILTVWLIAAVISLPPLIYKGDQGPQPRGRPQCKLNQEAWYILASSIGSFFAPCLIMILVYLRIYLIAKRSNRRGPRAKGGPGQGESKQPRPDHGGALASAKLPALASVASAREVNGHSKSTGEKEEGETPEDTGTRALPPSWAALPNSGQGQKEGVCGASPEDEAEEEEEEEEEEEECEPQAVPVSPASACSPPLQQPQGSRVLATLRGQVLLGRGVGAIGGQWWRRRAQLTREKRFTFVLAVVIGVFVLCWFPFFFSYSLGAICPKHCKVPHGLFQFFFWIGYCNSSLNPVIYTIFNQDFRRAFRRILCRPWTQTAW
T3 sequence (P08588 whole entry): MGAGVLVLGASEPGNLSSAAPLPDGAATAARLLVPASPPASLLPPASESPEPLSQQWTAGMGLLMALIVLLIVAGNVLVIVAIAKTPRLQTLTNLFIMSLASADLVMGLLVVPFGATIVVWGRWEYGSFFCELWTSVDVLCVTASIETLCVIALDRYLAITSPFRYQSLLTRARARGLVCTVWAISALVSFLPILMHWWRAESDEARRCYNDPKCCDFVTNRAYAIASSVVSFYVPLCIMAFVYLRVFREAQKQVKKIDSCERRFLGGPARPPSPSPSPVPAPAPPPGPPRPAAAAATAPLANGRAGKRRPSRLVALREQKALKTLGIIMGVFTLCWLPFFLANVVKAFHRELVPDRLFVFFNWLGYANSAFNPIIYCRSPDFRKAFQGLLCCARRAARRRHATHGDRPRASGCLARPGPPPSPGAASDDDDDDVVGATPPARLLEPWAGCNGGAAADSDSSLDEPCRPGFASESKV
T7 sequence (P15823 whole entry): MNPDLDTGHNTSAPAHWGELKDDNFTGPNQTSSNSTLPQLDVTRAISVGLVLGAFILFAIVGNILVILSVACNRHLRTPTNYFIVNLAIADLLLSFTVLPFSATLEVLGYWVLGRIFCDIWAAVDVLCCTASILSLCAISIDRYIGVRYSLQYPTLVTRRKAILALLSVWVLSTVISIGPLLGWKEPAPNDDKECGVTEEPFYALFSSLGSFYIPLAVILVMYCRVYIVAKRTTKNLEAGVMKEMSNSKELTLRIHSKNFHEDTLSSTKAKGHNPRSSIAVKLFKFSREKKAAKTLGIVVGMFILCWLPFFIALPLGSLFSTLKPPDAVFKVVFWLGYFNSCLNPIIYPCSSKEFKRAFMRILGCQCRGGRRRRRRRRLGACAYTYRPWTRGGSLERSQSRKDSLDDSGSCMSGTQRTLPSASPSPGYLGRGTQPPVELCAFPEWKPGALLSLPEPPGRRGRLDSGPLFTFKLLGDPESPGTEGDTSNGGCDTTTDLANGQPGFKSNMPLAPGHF
T6 sequence (P30542 whole entry): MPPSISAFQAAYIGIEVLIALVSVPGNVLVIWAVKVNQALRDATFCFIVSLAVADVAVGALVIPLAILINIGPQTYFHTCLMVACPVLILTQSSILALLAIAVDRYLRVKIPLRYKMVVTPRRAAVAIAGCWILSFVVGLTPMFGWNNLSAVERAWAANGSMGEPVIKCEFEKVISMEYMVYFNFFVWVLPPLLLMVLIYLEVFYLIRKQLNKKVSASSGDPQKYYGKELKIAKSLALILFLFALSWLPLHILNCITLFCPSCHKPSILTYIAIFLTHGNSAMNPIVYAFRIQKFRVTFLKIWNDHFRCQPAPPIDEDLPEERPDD
T2 sequence (Q12809 whole entry): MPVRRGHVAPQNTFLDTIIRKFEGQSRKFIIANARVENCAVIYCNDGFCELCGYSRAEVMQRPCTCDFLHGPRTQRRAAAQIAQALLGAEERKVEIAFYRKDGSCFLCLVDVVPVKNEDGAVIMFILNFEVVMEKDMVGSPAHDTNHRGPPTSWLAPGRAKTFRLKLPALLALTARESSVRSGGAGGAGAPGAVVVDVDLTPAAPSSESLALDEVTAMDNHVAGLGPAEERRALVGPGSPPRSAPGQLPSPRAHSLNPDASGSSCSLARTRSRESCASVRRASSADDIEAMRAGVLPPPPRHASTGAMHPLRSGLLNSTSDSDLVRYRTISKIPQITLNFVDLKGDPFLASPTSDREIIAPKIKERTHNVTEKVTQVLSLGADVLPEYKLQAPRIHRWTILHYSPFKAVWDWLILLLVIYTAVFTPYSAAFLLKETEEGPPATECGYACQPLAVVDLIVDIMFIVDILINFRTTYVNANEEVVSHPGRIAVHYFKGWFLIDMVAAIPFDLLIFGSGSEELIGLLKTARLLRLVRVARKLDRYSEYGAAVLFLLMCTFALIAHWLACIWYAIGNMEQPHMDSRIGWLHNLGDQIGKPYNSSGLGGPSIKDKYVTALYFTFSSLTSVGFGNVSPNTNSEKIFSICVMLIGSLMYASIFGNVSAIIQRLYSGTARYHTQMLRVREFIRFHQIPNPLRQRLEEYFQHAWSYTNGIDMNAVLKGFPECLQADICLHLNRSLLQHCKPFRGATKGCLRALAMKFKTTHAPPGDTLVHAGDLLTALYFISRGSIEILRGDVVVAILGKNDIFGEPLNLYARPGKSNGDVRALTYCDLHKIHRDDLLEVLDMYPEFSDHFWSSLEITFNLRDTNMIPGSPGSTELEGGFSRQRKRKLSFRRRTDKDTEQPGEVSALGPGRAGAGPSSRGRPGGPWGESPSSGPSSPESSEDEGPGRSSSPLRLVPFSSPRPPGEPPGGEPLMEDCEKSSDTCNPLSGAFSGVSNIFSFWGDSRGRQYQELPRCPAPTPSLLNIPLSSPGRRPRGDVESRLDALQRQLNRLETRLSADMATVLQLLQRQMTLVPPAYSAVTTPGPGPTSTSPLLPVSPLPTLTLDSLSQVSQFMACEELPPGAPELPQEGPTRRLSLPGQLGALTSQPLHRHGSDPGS
T5 sequence (P06401 whole entry): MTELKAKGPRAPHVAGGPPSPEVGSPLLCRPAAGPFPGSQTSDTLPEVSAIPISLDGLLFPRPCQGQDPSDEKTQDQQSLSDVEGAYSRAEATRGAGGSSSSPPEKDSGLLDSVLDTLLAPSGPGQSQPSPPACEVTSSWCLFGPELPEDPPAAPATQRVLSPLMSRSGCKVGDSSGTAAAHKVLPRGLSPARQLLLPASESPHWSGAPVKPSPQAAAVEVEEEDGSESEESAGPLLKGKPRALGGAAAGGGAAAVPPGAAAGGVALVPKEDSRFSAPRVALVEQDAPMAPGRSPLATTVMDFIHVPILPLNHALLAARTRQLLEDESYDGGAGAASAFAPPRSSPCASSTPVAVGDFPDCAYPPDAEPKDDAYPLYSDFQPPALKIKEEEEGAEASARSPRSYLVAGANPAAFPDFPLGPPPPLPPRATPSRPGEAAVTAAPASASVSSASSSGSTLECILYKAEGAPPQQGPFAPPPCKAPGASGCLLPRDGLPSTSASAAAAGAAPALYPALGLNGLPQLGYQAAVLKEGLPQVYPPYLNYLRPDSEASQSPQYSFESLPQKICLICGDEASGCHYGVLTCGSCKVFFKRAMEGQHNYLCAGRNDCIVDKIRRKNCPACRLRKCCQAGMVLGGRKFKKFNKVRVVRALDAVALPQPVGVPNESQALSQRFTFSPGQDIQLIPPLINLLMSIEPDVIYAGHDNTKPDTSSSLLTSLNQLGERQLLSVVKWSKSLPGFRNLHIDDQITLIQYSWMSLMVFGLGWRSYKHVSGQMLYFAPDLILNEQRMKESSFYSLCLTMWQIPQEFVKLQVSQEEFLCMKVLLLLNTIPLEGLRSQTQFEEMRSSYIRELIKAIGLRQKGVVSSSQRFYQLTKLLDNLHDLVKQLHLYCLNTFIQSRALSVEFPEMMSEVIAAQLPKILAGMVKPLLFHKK

COCCOCCO[C@@H]1[C@@H](OP(=O)(O)O)[C@H](OCCOCCOC)[C@@H](OP(=O)(O)O)[C@@H](OP(=O)(O)O)[C@H]1OP(=O)(O)O [(OEG2)2-IP4, 4,6-Di-O-(methoxy-diethyleneglycol)-myo-inositol-1,2,3,5-tetrakis(phosphate)]
inhibition at 10 µM [1]: 4%
accumulation following repeated s.c. administration ([2]; 50 mg/kg for 7 days): No significant accumulation
plasma concentration ([2]; 50 mg/kg/day s.c. sub-chronic (7 days), time 0): 0.18 and 0.24 and 0.25 and 0.16
plasma concentration ([2]; 50 mg/kg/day s.c. sub-chronic, time 0.5): 82.39 and 90 and 95.45 and 69.57
plasma concentration ([2]; 50 mg/kg/day s.c. sub-chronic, time 1): 64.18 and 72.74 and 67.54 and 66.21
plasma concentration ([2]; 50 mg/kg/day s.c. sub-chronic, time 2): 31.83 and 38.97 and 22.86 and 35.06
plasma concentration ([2]; 50 mg/kg/day s.c. sub-chronic, time 8): 0.78 and 0.86 and 0.76 and 0.85
plasma concentration ([2]; 50 mg/kg/day s.c. sub-chronic, time 24): 0.07 and 0.13 and 0.08
inhibition at 10 µM [3]: 11%
inhibition at 10 µM [4]: 2%
inhibition at 10 µM [5]: 3%
inhibition at 10 µM [6]: -4%
% Inhibition [7]: 5%
inhibition at 10 µM [8]: 4%
stability in aqueous solution by 1H- and 31P-NMR [9]: No compound degradation was evident
change of 18F-NaF uptake vs vehicle ([10]; 8.6 μM in human serum): −33%
maximum average 18F binding (18F-NaF-PET) ([10]; IC90 concentration in human serum, individual samples Fig. 3k, unit not given): 547.591 and 685.802 and 706.308
inhibition at 10 µM [11]: 5%
